One series concerns the target T1, human GLP-1 receptor (Homo sapiens, UniProt P43220).
T1 construct: expressed in transfected cells
Nature of the series: GLP-1 receptor potency assay (cAMP ALPHASCREEN, HEK293 cells stably expressing GLP-1 R). The format is cell-based. The conditions noted are these: cAMP response, HEK293 cells expressing human GLP-1 R. The source says: One useful in vitro assay for measuring GLP-1 and GLP-2 receptor activity is quantitation of cAMP, i.e. 3′-5′-cyclic adenosine monophosphate, which is a second messenger essential in many biological processes, and one of the most ubiquitous mechanisms for regulating cellular functions.
The cDNA encoding the human glucagon-like peptide 1 receptor (GLP-1 R) (primary accession number P43220) was cloned from the cDNA BC112126 (MGC:138331/IMAGE:8327594). The DNA encoding the GLP-1-R was amplified by PCR using primers encoding terminal restriction sites for subcloning. The 5′-end primers additionally encoded a near Kozak consensus sequence to ensure efficient translation. […] The PCR products encoding the GLP-1-R were subcloned into a mammalian expression vector containing a neomycin (G418) resistance marker. The mammalian expression vectors encoding the GLP-1-R were transfected into HEK293 cells by a standard calcium phosphate transfection method. 48 hours post-transfection, cells were seeded for limited dilution cloning and selected with 1 mg/ml G418 in the culture medium. Following 3 weeks in G418 selection clones were picked and tested in a functional GLP-1 receptor potency assay as described below.
The cAMP ALPHASCREEN® assay from Perkin Elmer was used to quantitate the cAMP response to activation of the GLP1 and GLP2 receptor, respectively. […] Data from test compounds eliciting an increase in the intracellular level of cAMP were normalized relative to the positive and negative control (vehicle) to calculate the EC50 and maximal response from the concentration response curve.
For orientation: In Alpha technology, singlet oxygen from a donor bead excites a nearby acceptor bead.

Series [1] can be described thus: Chemical stability (RP-HPLC normalized purity after incubation at 40° C.). The format is physicochemical. The conditions noted are these: 14-day incubation, 0.2 mg/ml, normalized purity (area-%). The method in brief:
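Peptide at 0.2 mg/ml final in water adjusted to pH 6, 7, 7.5 or 9, incubated at 40° C for 14 days. Purity measured as main-peak area-% by C18 RP-HPLC (acetonitrile/TFA/water gradient, UV 220 nm) and normalized to T=0 set at 100 for each pH.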

Where a SMILES comes first, the peptide text is derived from it. [ ]: non-standard residue; d: D form. The star is where a group is joined. Stearoyl = CCCCCCCCCCCCCCCCCC(=O)*; Aib = CC(C)(N)C(=O)O

T1 sequence (P43220 24-463): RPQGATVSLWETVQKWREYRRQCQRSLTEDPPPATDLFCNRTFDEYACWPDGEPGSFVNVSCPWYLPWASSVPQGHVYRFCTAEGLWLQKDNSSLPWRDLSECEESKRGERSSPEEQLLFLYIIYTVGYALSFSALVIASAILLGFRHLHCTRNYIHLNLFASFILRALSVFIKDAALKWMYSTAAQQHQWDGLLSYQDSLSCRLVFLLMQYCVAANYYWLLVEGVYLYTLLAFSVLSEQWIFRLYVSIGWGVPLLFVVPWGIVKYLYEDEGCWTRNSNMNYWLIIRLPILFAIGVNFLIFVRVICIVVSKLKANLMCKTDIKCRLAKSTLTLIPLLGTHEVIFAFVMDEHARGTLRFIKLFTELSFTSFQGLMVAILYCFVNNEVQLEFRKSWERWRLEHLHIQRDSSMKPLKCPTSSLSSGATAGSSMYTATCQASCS

`CC[C@H](C)[C@H](NC(=O)[C@H](Cc1ccccc1)NC(=O)[C@H](CC(=O)O)NC(=O)[C@H](CCCNC(=N)N)NC(=O)[C@H](C)NC(=O)[C@H](C)NC(=O)[C@H](CCC(=O)O)NC(=O)[C@H](CCCCNC(=O)CC[C@H](NC(=O)CCCCCCCCCCCCCCCCC(=O)O)C(=O)O)NC(=O)[C@H](CC(=O)O)NC(=O)[C@H](CC(C)C)NC(=O)[C@@H](NC(=O)[C@@H](NC(=O)[C@H](C)NC(=O)[C@H](CC(C)C)NC(=O)[C@H](CCC(=O)O)NC(=O)[C@H](CO)NC(=O)[C@@H](NC(=O)[C@H](Cc1ccccc1)NC(=O)[C@H](CO)NC(=O)CNC(=O)[C@H](CCC(=O)O)NC(=O)C(C)(C)NC(=O)[C@@H](N)Cc1c[nH]cn1)[C@@H](C)O)[C@@H](C)O)[C@@H](C)CC)C(=O)N[C@@H](C)C(=O)N[C@@H](Cc1c[nH]c2ccccc12)C(=O)N[C@@H](CC(C)C)C(=O)N[C@H](C(=O)N[C@@H](CCC(=O)O)C(=O)N[C@@H](Cc1c[nH]cn1)C(=O)N[C@@H](CCCCN)C(=O)N[C@H](C(=O)N[C@H](C(=O)N[C@@H](CC(=O)O)C(=O)O)[C@@H](C)O)[C@@H](C)CC)[C@@H](C)CC` [Compound 2] (HELM PEPTIDE1{H.[Aib].E.G.S.F.T.S.E.L.A.T.I.L.D.K.E.A.A.R.D.F.I.A.W.L.I.E.H.K.I.T.D}|PEPTIDE2{[O=C(O)CCCCCCCCCCCCCCCCC(=O)[*:2]].[gGlu]}$PEPTIDE1,PEPTIDE2,16:R3-2:R2$$$V2.0) had an EC50 at human GLP-1 receptor of 0.13 nM. The “pH 6 normalized stability” value in series [1] (pH 6, 40° C.) is listed as “A (>90% normalised stability)”. For the same compound, the “pH 7 normalized stability” value in series [1] (pH 7, 40° C.) is “A (>90% normalised stability)”.
The compound `CCCCCCCCCCCCCCCCCC(=O)NCCCC[C@H](NC(=O)[C@H](CC(=O)O)NC(=O)[C@H](CC(C)C)NC(=O)[C@@H](NC(=O)[C@@H](NC(=O)[C@H](C)NC(=O)[C@H](CC(C)C)NC(=O)[C@H](CCC(=O)O)NC(=O)[C@H](CO)NC(=O)[C@@H](NC(=O)[C@H](Cc1ccccc1)NC(=O)[C@H](CO)NC(=O)CNC(=O)[C@H](CCC(=O)O)NC(=O)C(C)(C)NC(=O)[C@@H](N)Cc1c[nH]cn1)[C@@H](C)O)[C@@H](C)O)[C@@H](C)CC)C(=O)N[C@@H](CCC(N)=O)C(=O)N[C@@H](C)C(=O)N[C@@H](C)C(=O)N[C@@H](CCCNC(=N)N)C(=O)N[C@@H](CC(=O)O)C(=O)N[C@@H](Cc1ccccc1)C(=O)N[C@H](C(=O)N[C@@H](C)C(=O)N[C@@H](Cc1c[nH]c2ccccc12)C(=O)N[C@@H](CC(C)C)C(=O)N[C@H](C(=O)N[C@@H](CCC(N)=O)C(=O)N[C@@H](Cc1ccc(O)cc1)C(=O)N[C@@H](CCCCN)C(=O)N[C@H](C(=O)N[C@H](C(=O)N[C@@H](CC(=O)O)C(=O)O)[C@@H](C)O)[C@@H](C)CC)[C@@H](C)CC)[C@@H](C)CC` [Compound 36] (H-H[Aib]EGSFTSELATILDK(Stearoyl)QAARDFIAWLIQYKITD-OH) showed an EC50 on human GLP-1 receptor of 0.32 nM.
On human GLP-1 receptor, `CC[C@H](C)[C@H](NC(=O)[C@H](CC(C)C)NC(=O)[C@H](Cc1c[nH]c2ccccc12)NC(=O)[C@H](C)NC(=O)[C@@H](NC(=O)[C@H](Cc1ccccc1)NC(=O)[C@H](CC(=O)O)NC(=O)[C@H](CCCNC(=N)N)NC(=O)[C@H](C)NC(=O)[C@H](C)NC(=O)[C@H](CCC(N)=O)NC(=O)[C@H](CCC(=O)O)NC(=O)[C@H](CC(=O)O)NC(=O)[C@H](CC(C)C)NC(=O)[C@@H](NC(=O)[C@@H](NC(=O)[C@H](C)NC(=O)[C@H](CC(C)C)NC(=O)[C@H](CCC(=O)O)NC(=O)[C@H](CO)NC(=O)[C@H](CO)NC(=O)[C@H](Cc1ccccc1)NC(=O)[C@@H](NC(=O)CNC(=O)[C@H](CCC(=O)O)NC(=O)C(C)(C)NC(=O)[C@@H](N)Cc1c[nH]cn1)[C@@H](C)O)[C@@H](C)O)[C@@H](C)CC)[C@@H](C)CC)C(=O)N[C@@H](C)C(=O)N[C@@H](Cc1c[nH]cn1)C(=O)N[C@@H](CCCCN)C(=O)N[C@H](C(=O)N[C@H](C(=O)N[C@@H](CC(=O)O)C(=O)N[C@H](CCCCN)C(=O)N[C@H](CCCCN)C(=O)N[C@H](CCCCN)C(=O)N[C@H](CCCCN)C(=O)N[C@H](CCCCN)C(=O)N[C@H](CCCCNC(=O)CC[C@H](NC(=O)CCCCCCCCCCCCCCCCC(=O)O)C(=O)O)C(N)=O)[C@@H](C)O)[C@@H](C)CC` [Compound 38] (HELM PEPTIDE1{H.[Aib].E.G.T.F.S.S.E.L.A.T.I.L.D.E.Q.A.A.R.D.F.I.A.W.L.I.A.H.K.I.T.D.[dK].[dK].[dK].[dK].[dK].[dK].[am]}|PEPTIDE2{[O=C(O)CCCCCCCCCCCCCCCCC(=O)[*:2]].[gGlu]}$PEPTIDE1,PEPTIDE2,39:R3-2:R2$$$V2.0) registered an EC50 of 0.25 nM.
Still for that read-out and setting: the same measure for `CC[C@H](C)[C@H](NC(=O)[C@H](Cc1ccccc1)NC(=O)[C@H](CC(=O)O)NC(=O)[C@H](CCCNC(=N)N)NC(=O)[C@H](C)NC(=O)[C@H](C)NC(=O)[C@H](CCC(N)=O)NC(=O)[C@H](CCCCNC(=O)COCCOCCNC(=O)[C@H](CCCCN)NC(=O)[C@H](CCC(=O)O)NC(=O)[C@H](CCCCN)NC(=O)CC[C@H](NC(=O)CCCCCCCCCCCCCCCCC(=O)O)C(=O)O)NC(=O)[C@H](CC(=O)O)NC(=O)[C@H](CC(C)C)NC(=O)[C@@H](NC(=O)[C@@H](NC(=O)[C@H](C)NC(=O)[C@H](CC(C)C)NC(=O)[C@H](CCC(=O)O)NC(=O)[C@H](CO)NC(=O)[C@H](CO)NC(=O)[C@H](Cc1ccccc1)NC(=O)[C@@H](NC(=O)CNC(=O)[C@H](CCC(=O)O)NC(=O)C(C)(C)NC(=O)[C@@H](N)Cc1c[nH]cn1)[C@@H](C)O)[C@@H](C)O)[C@@H](C)CC)C(=O)N[C@@H](C)C(=O)N[C@@H](Cc1c[nH]c2ccccc12)C(=O)N[C@@H](CC(C)C)C(=O)N[C@H](C(=O)N[C@@H](CCC(=O)O)C(=O)N[C@@H](Cc1c[nH]cn1)C(=O)N[C@@H](CCCCN)C(=O)N[C@H](C(=O)N[C@H](C(=O)N[C@@H](CC(=O)O)C(=O)O)[C@@H](C)O)[C@@H](C)CC)[C@@H](C)CC` [Compound 49] (HELM PEPTIDE1{H.[Aib].E.G.T.F.S.S.E.L.A.T.I.L.D.K.Q.A.A.R.D.F.I.A.W.L.I.E.H.K.I.T.D}|PEPTIDE2{[O=C(O)CCCCCCCCCCCCCCCCC(=O)[*:2]].[gGlu].K.E.K.[O=C(COCCOCCN[*:1])[*:2]]}$PEPTIDE1,PEPTIDE2,16:R3-6:R2$$$V2.0): 0.27 nM; for `CC[C@H](C)[C@H](NC(=O)[C@H](Cc1ccccc1)NC(=O)[C@H](CC(=O)O)NC(=O)[C@H](CCCNC(=N)N)NC(=O)[C@H](C)NC(=O)[C@H](C)NC(=O)[C@H](CCC(N)=O)NC(=O)[C@H](CCCCNC(=O)COCCOCCNC(=O)[C@H](CCCCN)NC(=O)[C@H](CCC(=O)O)NC(=O)[C@H](CCCCN)NC(=O)CC[C@H](NC(=O)CCCCCCCCCCCCCCCCCCC(=O)O)C(=O)O)NC(=O)[C@H](CC(=O)O)NC(=O)[C@H](CC(C)C)NC(=O)[C@@H](NC(=O)[C@@H](NC(=O)[C@H](C)NC(=O)[C@H](CC(C)C)NC(=O)[C@H](CCC(=O)O)NC(=O)[C@H](CO)NC(=O)[C@@H](NC(=O)[C@H](Cc1ccccc1)NC(=O)[C@@H](NC(=O)CNC(=O)[C@H](CCC(=O)O)NC(=O)C(C)(C)NC(=O)[C@@H](N)Cc1c[nH]cn1)[C@@H](C)O)[C@@H](C)O)[C@@H](C)O)[C@@H](C)CC)C(=O)N[C@@H](C)C(=O)N[C@@H](Cc1c[nH]c2ccccc12)C(=O)N[C@@H](CC(C)C)C(=O)N[C@H](C(=O)N[C@@H](CCC(N)=O)C(=O)N[C@@H](Cc1c[nH]cn1)C(=O)N[C@@H](CCCCN)C(=O)N[C@H](C(=O)N[C@H](C(=O)N[C@@H](CC(=O)O)C(=O)O)[C@@H](C)O)[C@@H](C)CC)[C@@H](C)CC` [Compound 52] (HELM PEPTIDE1{H.[Aib].E.G.T.F.T.S.E.L.A.T.I.L.D.K.Q.A.A.R.D.F.I.A.W.L.I.Q.H.K.I.T.D}|PEPTIDE2{[O=C(O)CCCCCCCCCCCCCCCCCCC(=O)[*:2]].[gGlu].K.E.K.[O=C(COCCOCCN[*:1])[*:2]]}$PEPTIDE1,PEPTIDE2,16:R3-6:R2$$$V2.0): 0.02 nM.

A word on the EC50: it is the concentration that produces a half-maximal response.

These data come from patent US11395847B2, “Acylated GLP-1/GLP-2 dual agonists” (Zealand Pharma A/S, priority 2016, dated 2022).
